Laboratory results published in ChEMBL document CHEMBL4229332, “Novel multi-target azinesulfonamides of cyclic amine derivatives as potential antipsychotics with pro-social and pro-cognitive effects” (Eur J Med Chem, 2018).

Legend:
Rattus norvegicus [1] = organism: Rattus norvegicus; assay: animal or person; conditions: Sprague-Dawley, ip, read-out: MED
Description: Antipsychotic activity in ip dosed Sprague-Dawley rat assessed as suppression of avoidance behavior by avoiding foot shock administered 60 mins prior to test by conditioned avoidance response test

Cytochrome P450 3A4 = Cytochrome P450 3A4 (Homo sapiens, UniProt P08684); assay: Inhibition of human supersome CYP3A4 using testosterone as substrate assessed as testosterone 6beta-hydroxylation after 30 mins by HPLC-UV detection; format: ADME
Sequence of Cytochrome P450 3A4 (P08684 whole entry): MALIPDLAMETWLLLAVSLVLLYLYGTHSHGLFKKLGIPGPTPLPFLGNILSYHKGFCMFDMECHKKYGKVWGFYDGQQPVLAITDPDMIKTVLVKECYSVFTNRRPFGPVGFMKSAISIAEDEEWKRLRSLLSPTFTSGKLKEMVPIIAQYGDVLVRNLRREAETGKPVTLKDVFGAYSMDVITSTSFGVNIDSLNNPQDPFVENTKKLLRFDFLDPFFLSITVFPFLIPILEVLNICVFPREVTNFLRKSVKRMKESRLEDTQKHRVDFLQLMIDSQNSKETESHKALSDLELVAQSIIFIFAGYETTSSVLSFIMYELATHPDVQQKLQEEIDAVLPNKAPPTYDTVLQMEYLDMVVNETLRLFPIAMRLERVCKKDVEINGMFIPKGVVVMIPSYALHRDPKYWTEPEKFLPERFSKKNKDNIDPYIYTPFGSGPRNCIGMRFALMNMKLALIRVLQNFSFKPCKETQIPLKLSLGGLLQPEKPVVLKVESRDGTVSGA

Cavia porcellus [2] = assay: Cardiotoxicity in guinea pig assessed as effect on QRS interval time at 5 mg/kg, ip measured after 60 mins by ECG analysis (reference value: 26.2 to 31.6 milliseconds); format: toxicity, organism-based; conditions: in vivo, 1 h
Cavia porcellus [3] = assay: Cardiotoxicity in guinea pig assessed as effect on QT interval time at 5 mg/kg, ip measured after 50 mins by ECG analysis (reference value: 127.6 to 131.2 milliseconds); format: toxicity, organism-based; conditions: in vivo
Cavia porcellus [4] = assay: Cardiotoxicity in guinea pig assessed as effect on RR interval time at 5 mg/kg, ip measured after 40 mins by ECG analysis (reference value: 208.4 to 238.4 milliseconds); format: toxicity, organism-based; conditions: in vivo
[5] = Drug level in Wistar rat plasma at 3 mg/kg, ip measured after 60 mins by LC-MS/MS analysis; format: ADME, organism-based
[6] = Ratio of drug level in brain to plasma in Wistar rat at 3 mg/kg, ip measured after 15 mins by LC-MS/MS analysis; format: ADME, organism-based; conditions: read-out: BPR
Rattus norvegicus [7] = organism: Rattus norvegicus; assay: animal or person; conditions: Sprague-Dawley, ip, read-out: MED; remark: listed apart in the source
Description: Antipsychotic activity in ip dosed Sprague-Dawley rat assessed as reduction in PCP-induced hyper-locomotion pretreated for 60 mins followed by PCP addition measured for 30 mins starting 15 min after rat reintroduction to auto-tracks

Cavia porcellus [8] = assay: Cardiotoxicity in guinea pig assessed as effect on QTc interval time at 5 mg/kg, ip measured after 50 mins by ECG analysis (reference value: […] to […] milliseconds); format: toxicity, organism-based; conditions: in vivo
Cavia porcellus [9] = assay: Cardiotoxicity in guinea pig assessed as effect on RR interval time at 5 mg/kg, ip measured after 20 mins by ECG analysis (reference value: 208.4 to 238.4 milliseconds); format: toxicity, organism-based; conditions: in vivo
[10] = Ratio of drug level in brain to plasma in Wistar rat at 3 mg/kg, ip measured after 60 mins by LC-MS/MS analysis; format: ADME, organism-based; conditions: read-out: BPR
Cavia porcellus [11] = assay: Cardiotoxicity in guinea pig assessed as effect on frequence of heart rate at 5 mg/kg, ip measured after 20 mins by ECG analysis (reference value: 262 to 296 /min); format: toxicity, organism-based; conditions: in vivo
Cavia porcellus [12] = assay: Cardiotoxicity in guinea pig assessed as effect on PR interval time at 5 mg/kg, ip measured after 50 mins by ECG analysis (reference value: 58.8 to 63.8 milliseconds); format: toxicity, organism-based; conditions: in vivo
Cytochrome P450 2C19 = Cytochrome P450 2C19 (Homo sapiens, UniProt P33261); assay: Inhibition of human supersome CYP2C19 using perazine as substrate assessed as perazine N-demethylation after 30 mins by HPLC-UV detection; format: ADME
Sequence of Cytochrome P450 2C19 (P33261 whole entry): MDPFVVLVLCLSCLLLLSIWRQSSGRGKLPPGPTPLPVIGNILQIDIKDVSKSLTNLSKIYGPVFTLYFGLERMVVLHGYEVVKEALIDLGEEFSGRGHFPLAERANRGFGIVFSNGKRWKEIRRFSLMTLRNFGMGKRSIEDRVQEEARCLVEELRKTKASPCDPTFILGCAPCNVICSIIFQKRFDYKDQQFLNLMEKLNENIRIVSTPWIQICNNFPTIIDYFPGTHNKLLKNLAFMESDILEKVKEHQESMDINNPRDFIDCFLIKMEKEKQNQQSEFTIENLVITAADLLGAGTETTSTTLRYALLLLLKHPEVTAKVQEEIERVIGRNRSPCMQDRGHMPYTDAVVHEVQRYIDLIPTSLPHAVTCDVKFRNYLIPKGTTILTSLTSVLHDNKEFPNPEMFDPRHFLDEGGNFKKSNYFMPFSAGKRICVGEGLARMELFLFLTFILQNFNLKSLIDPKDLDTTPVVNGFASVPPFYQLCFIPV

[13] = target: T1, 5-hydroxytryptamine receptor 1A (Homo sapiens) (UniProt P08908); assay: Antagonist activity at human 5-HT1AR expressed in mouse BA/F3 cells assessed as inhibition of serotonin-induced calcium flux at 10^-6 M by fluorimetric method; format: functional, cell-based
T1 sequence (whole entry): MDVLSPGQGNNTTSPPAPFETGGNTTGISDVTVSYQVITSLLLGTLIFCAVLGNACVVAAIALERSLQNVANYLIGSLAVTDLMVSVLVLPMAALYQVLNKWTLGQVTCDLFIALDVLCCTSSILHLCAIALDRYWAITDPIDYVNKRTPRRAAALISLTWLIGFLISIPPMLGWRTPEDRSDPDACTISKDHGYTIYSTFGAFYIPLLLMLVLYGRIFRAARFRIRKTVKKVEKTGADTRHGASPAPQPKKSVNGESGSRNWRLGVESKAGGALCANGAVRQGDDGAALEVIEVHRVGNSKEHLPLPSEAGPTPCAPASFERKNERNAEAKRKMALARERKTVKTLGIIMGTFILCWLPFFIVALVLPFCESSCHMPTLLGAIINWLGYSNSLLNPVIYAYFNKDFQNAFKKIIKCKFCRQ

Cavia porcellus [14] = assay: Cardiotoxicity in guinea pig assessed as effect on PR interval time at 5 mg/kg, ip measured after 20 mins by ECG analysis (reference value: 58.8 to 63.8 milliseconds); format: toxicity, organism-based; conditions: in vivo
Cavia porcellus [15] = assay: Cardiotoxicity in guinea pig assessed as effect on PR interval time at 5 mg/kg, ip measured after 40 mins by ECG analysis (reference value: 58.8 to 63.8 milliseconds); format: toxicity, organism-based; conditions: in vivo
Cavia porcellus [16] = assay: Cardiotoxicity in guinea pig assessed as effect on RR interval time at 5 mg/kg, ip measured after 80 mins by ECG analysis (reference value: 208.4 to 238.4 milliseconds); format: toxicity, organism-based; conditions: in vivo
Cavia porcellus [17] = assay: Cardiotoxicity in guinea pig assessed as effect on frequence of heart rate at 5 mg/kg, ip measured after 80 mins by ECG analysis (reference value: 262 to 296 /min); format: toxicity, organism-based; conditions: in vivo
Cavia porcellus [18] = assay: Cardiotoxicity in guinea pig assessed as effect on RR interval time at 5 mg/kg, ip measured after 10 mins by ECG analysis (reference value: 208.4 to 238.4 milliseconds); format: toxicity, organism-based; conditions: in vivo
Cavia porcellus [19] = assay: Cardiotoxicity in guinea pig assessed as effect on QRS interval time at 5 mg/kg, ip measured after 50 mins by ECG analysis (reference value: 26.2 to 31.6 milliseconds); format: toxicity, organism-based; conditions: in vivo
Cavia porcellus [20] = assay: Cardiotoxicity in guinea pig assessed as effect on PR interval time at 5 mg/kg, ip measured after 70 mins by ECG analysis (reference value: 58.8 to 63.8 milliseconds); format: toxicity, organism-based; conditions: in vivo
[21] = target: T1, 5-hydroxytryptamine receptor 1A (Homo sapiens); assay: Partial agonist activity at human 5-HT1AR expressed in CHO-K1 cells assessed as increase in cAMP accumulation at 10^-6 M by chemiluminescence-based assay relative to serotonin; format: functional, cell-based
[22] = Drug level in Wistar rat brain at 3 mg/kg, ip measured after 30 mins by LC-MS/MS analysis; format: ADME, organism-based; conditions: read-out: Drug uptake
Cavia porcellus [23] = assay: Cardiotoxicity in guinea pig assessed as effect on PR interval time at 5 mg/kg, ip measured after 30 mins by ECG analysis (reference value: 58.8 to 63.8 milliseconds); format: toxicity, organism-based; conditions: in vivo, 0.5 h
[24] = Drug level in Wistar rat plasma at 3 mg/kg, ip measured after 30 mins by LC-MS/MS analysis; format: ADME, organism-based
Cavia porcellus [25] = assay: Cardiotoxicity in guinea pig assessed as effect on frequence of heart rate at 5 mg/kg, ip measured after 60 mins by ECG analysis (reference value: 262 to 296 /min); format: toxicity, organism-based; conditions: in vivo, 1 h
Cavia porcellus [26] = assay: Cardiotoxicity in guinea pig assessed as effect on QRS interval time at 5 mg/kg, ip measured after 20 mins by ECG analysis (reference value: 26.2 to 31.6 milliseconds); format: toxicity, organism-based; conditions: in vivo
Cavia porcellus [27] = assay: Cardiotoxicity in guinea pig assessed as effect on QTc interval time at 5 mg/kg, ip measured after 70 mins by ECG analysis (reference value: […] to […] milliseconds); format: toxicity, organism-based; conditions: in vivo
Cavia porcellus [28] = assay: Cardiotoxicity in guinea pig assessed as effect on QT interval time at 5 mg/kg, ip measured after 30 mins by ECG analysis (reference value: 127.6 to 131.2 milliseconds); format: toxicity, organism-based; conditions: in vivo, 0.5 h
[29] = Toxicity in ip dosed Sprague-Dawley rat assessed as sedation pretreated for 60 mins followed by PCP addition measured for 30 mins starting 15 min after rat reintroduction to auto-tracks; format: organism-based; conditions: in vivo

Structure (SMILES) | minimal effective dose (Rattus norvegicus [1]) [mg/kg] | IC50 (Cytochrome P450 3A4) [µM] | Time (Cavia porcellus [2]) [ms] | Time (Cavia porcellus [3]) [ms] | Time (Cavia porcellus [4]) [ms] | concentration at 1 h [5] [nM] | Kp at 0.25 h [6] | minimal effective dose (Rattus norvegicus [7]) [mg/kg] | Time (Cavia porcellus [8]) [ms] | Time (Cavia porcellus [9]) [ms] | Kp at 1 h [10] | Activity (Cavia porcellus [11]) [min⁻¹] | Time (Cavia porcellus [12]) [ms] | IC50 (Cytochrome P450 2C19) [µM] | inhibition [13] [%] | Time (Cavia porcellus [14]) [ms] | Time (Cavia porcellus [15]) [ms] | Time (Cavia porcellus [16]) [ms] | Activity (Cavia porcellus [17]) [min⁻¹] | Time (Cavia porcellus [18]) [ms] | also measured
O=S(=O)(c1cncc2ccccc12)N1CCC[C@H]1CCN1CCN(c2cccc3sccc23)CC1 | 3 | 10 | 30.4 | 124.8 | 227.2 | 45 | 1.69 | 1 | 265 | 231.2 | 2.13 | 256 | 64.2 | > 100 | 80 | 63.8 | 63.4 | 214 | 286 | 236.6 | Time (Cavia porcellus [19]): 31.6 ms; Time (Cavia porcellus [20]): 64.2 ms; Activity [21]: 40.6%; concentration at 0.5 h [22]: 245 nM; Time (Cavia porcellus [23]): 62.8 ms; concentration at 0.5 h [24]: 105 nM; Activity (Cavia porcellus [25]): 276 min⁻¹; Time (Cavia porcellus [26]): 31.6 ms; Time (Cavia porcellus [27]): 265.6 ms; Time (Cavia porcellus [28]): 126.8 ms; MTD at 0.5 h [29]: 3 mg/kg
O=S(=O)(c1cncc2ccccc12)N1CCC[C@H]1CCN1CCN(c2nsc3ccccc23)CC1 | 3 | 23 | 27.2 | 121.6 | 211 | 50.2 | 0.59 | 1 | 266 | 206 | 0.96 | 296 | 60 | 50 | 87 | 59.6 | 61 | 213 | 284 | 202 | Time (Cavia porcellus [19]): 27 ms; Time (Cavia porcellus [20]): 60.8 ms; Activity [21]: 5.3%; concentration at 0.5 h [22]: 177 nM; Time (Cavia porcellus [23]): 58.8 ms; concentration at 0.5 h [24]: 177 nM; Activity (Cavia porcellus [25]): 288 min⁻¹; Time (Cavia porcellus [26]): 26 ms; Time (Cavia porcellus [27]): 274.6 ms; Time (Cavia porcellus [28]): 128.8 ms; MTD at 0.5 h [29]: 3 mg/kg
